Test results: patent publication US5821231A, “CS-1 peptidomimetics, compositions and methods of using same” (Cytel Corporation, priority 1995, dated 1998)
Square brackets hold non-standard residues; d marks the D form. Peptide text beside a SMILES is read from it. * marks the point of attachment. PhAc = O=C(Cc1ccccc1)*

Assays:
[1] = system: BALB/c mice; assay: Adoptive transfer delayed type hypersensitivity in mice (oxazolone); type: in vivo, mouse; details: initial study; 6 mg/kg/day s.c. pump, 24-hour; FIG. 5
Method: An adoptive transfer delayed-type hypersensitivity murine model has been developed using splenic T cells primed to oxazolone. This model is described in Elices et al., Clin. Exp. Rheum., 11(Suppl. 8):577-580 (1993), whose procedures were followed here.
Thus, BALB/c mice were shaved on the belly and painted (50 μl on the belly and 5 μl on each paw) with three percent oxazolone in acetone/olive oil (4:1) at days zero and 1. At day 5, the mice were sacrificed, their spleens removed, and splenic T cells were obtained via nylon wool columns.
Normal saline or saline containing 25×10^6 /animal of the oxazolone-immune T cells were separately injected into naive mice. The mice were then challenged by painting 10 μl of 2 percent oxazolone onto one ear each. All procedures were carried out under sterile conditions and in endotoxin-free buffers.
Prior to challenge or saline injection, the mice were implanted with pumps that subcutaneously administered normal saline, normal saline containing the compound, Compound ID No. 896.52, N-phenylacetyl-Leu-Asp-Phe-D-Pro-NH2, or normal saline containing a compound with a scrambled sequence continually at 6 mg/kg/day for a 24-hour time period. The swelling diameter at the site of challenge or saline injection was measured with a microcaliper 24 hours thereafter.
An expanded study was carried out as described above except that a scrambled compound control was not used as a control for further inhibitor compounds of Table 1 with larger groups of mice. Statistical analyses were carried out versus injection of vehicle alone.

[2] = system: New Zealand white rabbits; assay: Rabbit heterotopic cardiac allograft model; type: in vivo
From the text: New Zealand white female rabbits (Charles River Lab., Saint Laurent, Quebec), between 3.5 and 4 kg underwent heterotopic cardiac transplant following an experimental protocol previously described [Alonso et al., Am. J. Pathol., 87:415-442 (1977); Clausell et al., Circulation, 89:2768-2779 (1994)]. The animals were unselected to favor an HLA-mismatch, the host rabbits were Pasteurella-free and the donors, outbred animals. Both host and donor rabbits were fed Purina 5321-0.5 percent cholesterol diet (Research Diets Inc., New Brunswick, N.J.), a strategy that has proven useful in accelerating the process of allograft arteriopathy [Alonso et al., Am, J. Pathol., 87:415-442 (1977)]. The diet was commenced four days prior to the transplant and continued in the recipient of the transplant until the completion of the experimental period.
The technique of heterotopic cardiac transplantation has been previously described [Clausell et al., Circulation, 89:2768-2779 (1994)]. Briefly, a vertical incision was performed in the anterior aspect of the neck of the recipient rabbit and the left common carotid artery and the ipsilateral external jugular vein were isolated. The cardiac allograft was placed in the neck by anastomosing the aorta end-to-side to the recipient's carotid artery and the pulmonary end-to-side to the recipient's external jugular vein, following a total period of ischemia for the donor hearts of approximately 30 minutes. Postoperative care was in compliance with the Principles of Laboratory Animal Care formulated by the Canadian National Society for Medical Research.
Beginning the day of the transplant, the animals were randomized and treated with either scrambled compound (control group) at 1 mg/kg s.c. or the inhibitor compound at 1 mg/kg s.c. The doses of the compounds were empirically extrapolated to the in vivo model based on preliminary in vitro studies, of Table 1. No other immunosuppression therapy was administered. The grafts were monitored daily by palpation and maintained for 7 to 8 days, a previously described endpoint that was associated with myocardial rejection (impaired cardiac contractility) and development of the allograft arteriopathy in this model [Clausell et al., Circulation, 89:2768-2779 (1994)]. A total of fourteen animals were studied in the control (n=7) and treated (n=7) groups.
The animals were sacrificed using a lethal dose of euthanol (480 mg i.v.) (MTC Pharmaceutical, Cambridge, ON), host and donor hearts were removed, and the coronary arteries were perfused with saline through the aorta, followed by light fixation by perfusion with 2 percent paraformaldehyde (Sigma, St, Louis, Mo.). […] Different sections of the hearts were either saved in 10 percent formalin (BDH Inc., Toronto, ON) for light microscopy studies or immediately frozen in O.T.C. Compound Tissue Tek (Miles Inc., Elkart, Ind.) for specific immunohistochemistry studies.
Three different paraffin-embedded tissue sections from host and donor hearts from both control and treated rabbits were stained by the Movat pentachrome method for light microscopy. Morphometric analysis was performed using a Zeiss microscope attached to a computer-generated video analysis system (Perceptics Inc., NuVision software), as described in Clausell et al., Circulation, 89:2768-2779 (1994). The number of vessels with intimal lesions were counted in all three heart sections from each animal studied and are expressed as a percentage of the total vessel number.
In the host hearts, 999 vessels in the control group and 1054 vessels in the treated group were analyzed. In the donor hearts, 827 vessels in the control group and 617 vessels in the treated group were analyzed. To determine the severity of intimal thickening, the diameter of each traceable vessel in all three sections was measured and the coronary arteries were categorized as small (diameter <100 μm), medium (diameter >100<500 μm) and large (diameter >500 μm). […]

[3] = system: asthmatic sheep; assay: Treatment of asthmatic sheep (Ascaris suum antigen, crossover); type: in vivo; details: nebulized 1 mg/kg; FIG. 7
Method: Six asthmatic sheep were treated in a double blind cross-over study. […] This study was carried out generally as described in Abraham et al., J. Clin. Invest., 93:776-787 (1994).
The inhibitor compound used here was Compound ID No. 896.52, N-phenylacetyl-Leu-Asp-Phe-D-Pro-NH2, with a control compound that comprised the previously described compound having the same residues in a scrambled sequence. The vehicle for the nebulized compounds was phosphate-buffered saline. The compounds were administered at a dose of 1 mg/kg each, twice a day for three days prior to challenge, as well as 0.5 hours prior to and four hours post challenge on day 4. Because this was a crossover study, each animal received one or the other treatment, followed by a rest and then the other treatment. Each animal therefore served as its own control.
Post challenge airway responsiveness was also assayed. Here, specific lung resistance, SRL, returned to baseline values 24 hours after challenge, however, the sheep were hyperresponsive to inhaled carbachol at that time.

## CC(C)C[C@H](NC(=O)[C@H](CC(=O)O)NC(=O)Cc1ccccc1)C(=O)N[C@@H](Cc1ccccc1)C(=O)N1CCC[C@@H]1C(N)=O [N-phenylacetyl-Asp-Leu-Phe-D-Pro-NH2, reference compound] (PhAc-DLF[dP]-NH2)
[1]
  reduction of inflammation (swelling diameter at challenge site): no reduction of inflammation
[2]; donor heart, 1 mg/kg s.c.
  Vessel Intimal Thickening: Percent of Vessels: 88%
  Vessel Intimal Thickening: Severity (Percent of Vessel area): 36%
[2]; rabbit own host heart
  Baseline of incidence of intimal thickening: 1%
  Baseline of severity of intimal thickening: 12%
[3]
  change from baseline specific lung resistance (SRL) on challenge: had an increase in that pulmonary function (SRL)
